This note sets out measurements from patent US9073905B2, “Rock inhibitors” (Amakem NV, priority 2011, dated 2015).

“Also recorded” adds a separate entry of the source.

One series addresses ROCK2 (Homo sapiens, UniProt O75116). The series can be described thus: Kinase inhibition (ROCKI & ROCKII), radiometric 33P-ATP biochemical assay. The settings on record: for IC50: ROCK 1 nM, 120 min at room temperature. On the procedure: On-target activity against ROCK was measured in a biochemical assay, using the following reagents: Base Reaction buffer; 20 mM Hepes (pH 7.5), 10 mM MgCl2, 1 mM EGTA, 0.02% Brij35, 0.02 mg/ml BSA, 0.1 mM Na3VO4, 2 mM DTT, 1% DMSO. Required cofactors are added individually to each kinase reaction. The reaction procedure first involved the preparation of a peptide substrate in a freshly prepared reaction buffer. Required cofactors were then added to the substrate solution. ROCK (1 nM final concentration) was then delivered to the substrate solution. After gentle mix, DMSO solutions of the test compounds were added to the enzyme. Substrate mix ^33P-ATP (specific activity 0.01 μCi/μl final) was then delivered into the reaction mixture to initiate the reaction. The kinase reaction was incubated for 120 min. at room temperature. Reactions were then spotted onto P81 ion exchange paper (Whatman #3698-915). Filters were washed extensively in 0.1% Phosphoric acid. A radiometric count was then performed and IC50 values were subsequently determined.
The IC50 values obtained (in accordance with the protocol set forth above) are represented as follows: “+++” means IC50 below 0.1 μM, “++” means IC50 between 0.1 μM and 1 μM; “+” means IC50 between 1 and 10 μM and “ND” means “not determined yet”.

Series [1] can be described thus: Stability assay in rabbit aqueous humor. The settings on record: for half-life at 1 μM: rabbit, aqueous humor, 1 μM in rabbit aqueous humor, read-out: t½ AH. Format: in vitro ADME. On the procedure:
Compounds are incubated at a concentration of 1 μM in rabbit aqueous humor (AH). Samples are taken at fixed time points and the remnant of compound is determined by LC-MS/MS after protein precipitation. Half life is expressed in minutes.

Series [2] relates to MLC-T18/S19 phosphorylation. Description: Myosin light chain phosphorylation assay (ELISA) in A7r5 cells. Format: cell-based, Rat. The settings on record: for functional activity in the MLC phosphorylation assay (in words): FIG. 1; for EC50: Rattus norvegicus, MLC-T18/S19 phosphorylation, A7r5 cells, serum-free medium. On the procedure:
Rat smooth muscle cell line A7r5 is used. The endogenous expression of ROCK esults in a constitutive phosphorylation of the regulatory myosin light chain at T18/S19. A7r5 cells were plated in DMEM supplemented with 10% FCS in multiwall cell culture plates. After serum starvation overnight, cells were incubated with compounds in serum-free medium.
Quantification of MLC-T18/S19 phosphorylation is assesses in 96 well-plates via ELISA using a phspho-MLC-T18/S19 specific antibody and a secondary detection antibody. Raw data were converted into percent substrate phosphorylation relative to high controls, which were set to 100%.
EC50 values were determined using GraphPad Prism 5.01 software using a nonlinear regression curve fit with variable hill slope.
The EC50 values obtained (in accordance with the protocols set forth above) are represented as follows: “+++” means EC50 below 0.3 μM, “++” means EC50 between 0.3 μM and 1 μM; “+” means EC50 between 1 and 10 μM and “−” means EC50>10 μM.
A general note: An ELISA detects its analyte on a solid surface through an enzyme-linked reagent.

A short description of series [3]: Stability assay in human plasma. Format: in vitro ADME. The settings on record: 1 μM compound, LC-MS/MS, read-out: t½ human plasma. On the procedure: (§1) Compounds are incubated at a concentration of 1 μM in rat (mice or rabbit) or human plasma. Samples are taken at fixed time points and the remnant of compound is determined by LC-MS/MS after protein precipitation. Half life is expressed in minutes.

The nature of series [4]: Stability in plasma, species not stated. To be noted: point C.2.1. Format: in vitro ADME. On the procedure:
as §1

Sequence of ROCK2 (O75116 whole entry, species assumed): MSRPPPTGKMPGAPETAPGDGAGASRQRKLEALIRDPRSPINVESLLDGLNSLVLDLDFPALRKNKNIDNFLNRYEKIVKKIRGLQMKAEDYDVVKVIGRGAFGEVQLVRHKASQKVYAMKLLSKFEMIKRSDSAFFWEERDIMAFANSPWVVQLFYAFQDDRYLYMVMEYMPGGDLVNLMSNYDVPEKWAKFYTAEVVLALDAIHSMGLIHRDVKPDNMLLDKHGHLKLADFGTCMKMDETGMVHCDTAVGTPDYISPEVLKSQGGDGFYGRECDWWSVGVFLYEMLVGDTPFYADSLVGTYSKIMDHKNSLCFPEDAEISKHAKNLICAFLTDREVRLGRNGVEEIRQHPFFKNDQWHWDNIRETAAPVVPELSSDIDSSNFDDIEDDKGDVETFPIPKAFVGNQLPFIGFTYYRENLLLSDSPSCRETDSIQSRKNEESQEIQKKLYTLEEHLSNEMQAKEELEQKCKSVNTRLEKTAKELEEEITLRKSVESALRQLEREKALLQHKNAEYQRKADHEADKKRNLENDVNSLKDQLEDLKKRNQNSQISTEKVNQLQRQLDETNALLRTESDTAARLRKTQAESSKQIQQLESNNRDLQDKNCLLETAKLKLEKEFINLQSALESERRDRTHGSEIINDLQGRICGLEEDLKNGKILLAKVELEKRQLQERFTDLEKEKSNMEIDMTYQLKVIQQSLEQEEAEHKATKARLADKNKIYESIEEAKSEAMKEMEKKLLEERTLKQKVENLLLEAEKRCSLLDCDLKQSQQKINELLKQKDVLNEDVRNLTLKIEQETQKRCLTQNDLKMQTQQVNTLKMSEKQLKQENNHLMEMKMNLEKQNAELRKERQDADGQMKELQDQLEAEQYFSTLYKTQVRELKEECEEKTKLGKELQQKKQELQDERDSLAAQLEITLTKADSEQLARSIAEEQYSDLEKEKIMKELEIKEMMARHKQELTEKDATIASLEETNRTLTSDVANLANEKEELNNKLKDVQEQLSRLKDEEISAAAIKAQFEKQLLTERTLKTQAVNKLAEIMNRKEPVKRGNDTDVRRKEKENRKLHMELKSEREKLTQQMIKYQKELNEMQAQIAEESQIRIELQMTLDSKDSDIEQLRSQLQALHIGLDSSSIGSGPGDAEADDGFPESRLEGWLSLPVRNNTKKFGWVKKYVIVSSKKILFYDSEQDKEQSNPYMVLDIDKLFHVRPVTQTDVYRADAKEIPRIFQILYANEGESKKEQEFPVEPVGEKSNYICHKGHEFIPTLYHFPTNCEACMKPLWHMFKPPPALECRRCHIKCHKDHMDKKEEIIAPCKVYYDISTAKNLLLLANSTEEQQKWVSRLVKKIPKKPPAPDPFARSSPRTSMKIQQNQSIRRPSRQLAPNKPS

For orientation: IC50 means the concentration that gives 50% inhibition. Consider `COC(=O)c1cccc(NC(=O)c2cccc(CN3CCCC(Nc4ccc5[nH]ncc5c4)C3)c2)c1` (stereo not shown) [Compound 37], for which the concentration for half-maximal inhibition (IC50) against ROCK2 is < 100 nM. The half-life at 1 μM in series [1] is > 120 min.

As a reminder, the EC50 is the concentration giving half of the maximal effect. Turning to `O=C(OCC1CC1)c1cccc(CN2CCCC(Nc3ccc4[nH]ncc4c3)C2)c1` (stereo not shown) [Compound 17], the IC50 against ROCK2 was < 100 nM. In addition, the “inhibitory activity against ROCK (in words)” value at ROCK2 (summary of point C1.1) is listed as “strong inhibitory activity”. The “functional activity in the MLC phosphorylation assay (in words)” value in series [2] is “display functional activity”. In addition, the EC50 in series [2] lay in the range of 300 to 1000 nM. Also, the half-life at 1 μM was 25 min in series [3] and > 120 min in series [1]. For the same molecule, the “half-life in aqueous humor compared with plasma (in words)” value in series [1] (text summary of point C.2.3) is “significantly longer half-life in aqueous humor than in plasma”. Also, in series [4], the “half life in plasma (in words)” value is “short half life”.

`COC(=O)Cc1cccc(NC(=O)c2cccc(CN3CCC(Nc4cccc5cnccc45)C3)c2)c1` (stereo not shown) [Compound 33]: the IC50 on ROCK2 is < 100 nM. For the same molecule, the half-life at 1 μM in series [3] was < 4 min; in series [1], 59 min.

As to `COCCOC(=O)Cc1cccc(CN2CCCC(Nc3ccc4[nH]ncc4c3)C2)c1` (stereo not shown) [Compound 12], the 50% inhibitory concentration (IC50) against ROCK2 is < 100 nM.

As to `COC(=O)c1ccc(NC(=O)c2cccc(CN3CCCC(Nc4ccc5[nH]ncc5c4)C3)c2)cc1` (stereo not shown) [Compound 39], the half-life at 1 μM in series [1] is > 120 min.

On to `O=C(OCCO)c1cccc(CN2CCCC(Nc3cccc4cnccc34)C2)c1` (stereo not shown) [Compound 5], for which, on ROCK2, the IC50 was < 100 nM.

Regarding `O=C(OCC1CC1)c1cccc(CN2CCCC(Nc3cccc4cnccc34)C2)c1` (stereo not shown) [Compound 1], the 50% inhibitory concentration (IC50) at ROCK2 was < 100 nM. Also, the half-life at 1 μM in series [3] is 49 min.

In the case of `COC(=O)c1cccc(CN2CCC(Nc3cccc4cnccc34)C2)c1` (stereo not shown) [Compound 20], on ROCK2, the IC50 was < 100 nM.

`COC(=O)c1ccc(NC(=O)c2cccc(CN3CCCC(Nc4cccc5cnccc45)C3)c2)cc1` (stereo not shown) [Compound 25]: the half-life at 1 μM in series [1] was > 120 min.

For the molecule `COC(=O)Cc1cccc(NC(=O)c2cccc(CN3CCCC(Nc4cccc5cnccc45)C3)c2)c1` (stereo not shown) [Compound 31], the half-life at 1 μM is < 5 min in series [3] and > 120 min in series [1].

Turning to `COC(=O)Cc1ccc(NC(=O)c2cccc(CN3CCCC(Nc4cccc5cnccc45)C3)c2)cc1` (stereo not shown) [Compound 34], the IC50 against ROCK2 was < 100 nM. Also, the half-life at 1 μM in series [1] is > 120 min.

For `O=C1OCC(CCNC(=O)c2cccc(CN3CCCC(Nc4ccc5[nH]ncc5c4)C3)c2)O1` (stereo not shown) [Compound 29], the IC50 on ROCK2 is < 100 nM. For the same molecule, the half-life at 1 μM in series [3] is < 5 min; in series [1] it was > 120 min.

`CCSC(=O)c1cccc(CN2CCCC(Nc3ccc4[nH]ncc4c3)C2)c1` (stereo not shown) [Compound 16]: the 50% inhibitory concentration (IC50) at ROCK2 is < 100 nM.

For `CCSC(=O)c1cccc(CN2CCCC(Nc3cccc4cnccc34)C2)c1` (stereo not shown) [Compound 6], on ROCK2, the half-inhibitory concentration (IC50) is 100 to 1000 nM.

As to `O=C(OCCO)c1cccc(CN2CCCC(Nc3ccc4[nH]ncc4c3)C2)c1` (stereo not shown) [Compound 19], at ROCK2, the half-inhibitory concentration (IC50) is < 100 nM. The molecule also gave an EC50 in series [2] of 300 to 1000 nM.

For the molecule `COC(=O)Cc1cccc(NC(=O)Cc2cccc(CN3CCCC(Nc4ccc5[nH]ncc5c4)C3)c2)c1` (stereo not shown) [Compound 42], the IC50 against ROCK2 is < 100 nM. In addition, the half-life at 1 μM in series [3] is < 5 min.

At ROCK2, `O=C(OCc1ccccc1)c1cccc(CN2CCCC(Nc3cccc4cnccc34)C2)c1` (stereo not shown) [Compound 2] came in with a half-maximal inhibitory concentration (IC50) of 100 to 1000 nM. Besides, the half-life at 1 μM in series [3] was determined as 53 min.

`O=C(OCc1ccccc1)c1cccc(CN2CCCC(Nc3ccc4[nH]ncc4c3)C2)c1` (stereo not shown) [Compound 18]: the IC50 against ROCK2 is < 100 nM. For the same molecule, the half-life at 1 μM in series [3] amounted to 26 min.

`COC(=O)c1cccc(NC(=O)c2cccc(CN3CCCC(Nc4cccc5cnccc45)C3)c2)c1` (stereo not shown) [Compound 30]: on ROCK2, the IC50 is < 100 nM. Further, the half-life at 1 μM in series [1] is > 120 min.

For `O=C(O)c1cccc(CN2CCCC(Nc3ccc4[nH]ncc4c3)C2)c1` (stereo not shown) [Met1, 3-({3-[(1H-indazol-5-yl)amino]piperidin-1-yl}methyl)benzoic acid], in series [2], the “functional activity in the MLC phosphorylation assay (in words)” value is “functionally inactive compound; also recorded: devoid of functional activity” and the EC50 was > 10000 nM.

With `CCCOC(=O)Cc1cccc(CN2CCCC(Nc3ccc4[nH]ncc4c3)C2)c1` (stereo not shown) [Compound 4], on ROCK2, the IC50 was < 100 nM.

For `CCCOC(=O)c1cccc(CN2CCCC(Nc3cccc4cnccc34)C2)c1` (stereo not shown) [Compound 13], on ROCK2, the IC50 fell in the range of 100 to 1000 nM.

With `COC(=O)Cc1ccc(NC(=O)Cc2cccc(CN3CCCC(Nc4ccc5[nH]ncc5c4)C3)c2)cc1` (stereo not shown) [Compound 44], the half-inhibitory concentration (IC50) against ROCK2 was < 100 nM. In series [3], the half-life at 1 μM was < 5 min.

Consider `O=C(Oc1ccccc1)c1cccc(CN2CCCC(Nc3ccc4[nH]ncc4c3)C2)c1` (stereo not shown) [Compound 10], for which, on ROCK2, the 50% inhibitory concentration (IC50) is < 100 nM. Besides, the half-life at 1 μM in series [3] is < 5 min.

As for `COC(=O)c1ccc(NC(=O)c2cccc(CN3CCC(Nc4cccc5cnccc45)C3)c2)cc1` (stereo not shown) [Compound 35], the IC50 against ROCK2 is < 100 nM. The half-life at 1 μM in series [1] was > 120 min.

Turning to `CCCOC(=O)c1cccc(CN2CCCC(Nc3ccc4[nH]ncc4c3)C2)c1` (stereo not shown) [Compound 9], the IC50 against ROCK2 is < 100 nM. Further, the EC50 in series [2] is 300 to 1000 nM.

With `COC(=O)c1ccc(NC(=O)Cc2cccc(CN3CCCC(Nc4ccc5[nH]ncc5c4)C3)c2)cc1` (stereo not shown) [Compound 43], the half-life at 1 μM in series [1] is > 120 min.

Turning to `COC(=O)c1ccc(CN2CCCC(Nc3ccc4[nH]ncc4c3)C2)s1` (stereo not shown) [Compound 23], the half-maximal inhibitory concentration (IC50) on ROCK2 is < 100 nM.

As for `O=C(OCC1CCCO1)c1cccc(CN2CCCC(Nc3cccc4cnccc34)C2)c1` (stereo not shown) [Compound 15], the concentration for half-maximal inhibition (IC50) on ROCK2 was < 100 nM. In series [2], this molecule yielded a concentration for a half-maximal effect (EC50) of 1000 to 10000 nM. Moreover, in series [3], the half-life at 1 μM was 5 min.

As to `COC(=O)c1cccc(CN2CCCC(Nc3ccc4[nH]ncc4c3)C2)c1` (stereo not shown) [Compound 7], the 50% inhibitory concentration (IC50) against ROCK2 was < 100 nM. This molecule also came in with a concentration for a half-maximal effect (EC50) in series [2] of 1000 to 10000 nM.

For `COC(=O)Cc1cccc(CN2CCCC(Nc3ccc4[nH]ncc4c3)C2)c1` (stereo not shown) [Compound 11], the IC50 against ROCK2 is < 100 nM.

As to `COC(=O)Cc1cccc(NC(=O)c2cccc(CN3CCCC(Nc4ccc5[nH]ncc5c4)C3)c2)c1` (stereo not shown) [Compound 38], in series [1], the half-life at 1 μM was > 120 min.

Regarding `COC(=O)Cc1ccc(NC(=O)c2cccc(CN3CCCC(Nc4ccc5[nH]ncc5c4)C3)c2)cc1` (stereo not shown) [Compound 40], the half-life at 1 μM is 40 min in series [3] and > 120 min in series [1].

For `O=C(Oc1ccccc1)c1cccc(CN2CCCC(Nc3cccc4cnccc34)C2)c1` (stereo not shown) [Compound 3], the half-inhibitory concentration (IC50) at ROCK2 lay in the range of 100 to 1000 nM. Further, the half-life at 1 μM in series [3] worked out at 19 min.

Take `COC(=O)c1cccc(CN2CCCC(Nc3cccc4cnccc34)C2)c1` (stereo not shown) [Compound 8]: the IC50 against ROCK2 fell in the range of 100 to 1000 nM.

In the case of `COC(=O)c1cccc(NC(=O)Cc2cccc(CN3CCCC(Nc4ccc5[nH]ncc5c4)C3)c2)c1` (stereo not shown) [Compound 41], the half-inhibitory concentration (IC50) at ROCK2 is < 100 nM. The half-life at 1 μM in series [3] was 10 min; in series [1], > 120 min.

Take `O=C1OCC(CCNC(=O)c2cccc(CN3CCCC(Nc4cccc5cnccc45)C3)c2)O1` (stereo not shown) [Compound 27]: at ROCK2, the IC50 is < 100 nM. Also, the half-life at 1 μM in series [3] was found to be 4 min; in series [1] it was 111 min.

For `COC(=O)c1ccc(CN2CCCC(Nc3ccc4[nH]ncc4c3)C2)[nH]1` (stereo not shown) [Compound 24], on ROCK2, the IC50 is < 100 nM.

As to `CCOC(=O)c1cccc(CN2CCC(Nc3cccc4cnccc34)C2)c1` (stereo not shown) [Compound 21], the half-inhibitory concentration (IC50) on ROCK2 fell in the range of 100 to 1000 nM.

Consider `COC(=O)Cc1ccc(NC(=O)c2cccc(CN3CCC(Nc4cccc5cnccc45)C3)c2)cc1` (stereo not shown) [Compound 36], for which the concentration for half-maximal inhibition (IC50) against ROCK2 is < 100 nM. The half-life at 1 μM in series [3] was 24 min; in series [1] it was > 120 min.
